Tests used:
[1] = system: switch transcripts in mouse spleens; test: qRT-PCR of switch transcripts in mouse spleens; assay type: in vivo; conditions: spleen
Text: (§1) Female C57BL/6 mice (Charles River Laboratories, Bedford, Mass.) were used in these studies and treated with a beta-carboline, N-(6-chloro-7-methoxy-9H-beta-carbolin-8-yl)-2-methyl-nicotinamide (ML120B) following three different treatment regimens, A, B, and C. After the treatment, animals were euthanized and tissues were collected and frozen. Germinal centers were identified by immunohistochemistry (IHC) of cryosections (6 μm) using an antibody to mouse Bcl-6. T cells also were identified by IHC of serial cryosections, using an antibody to mouse CD3. The size and/or frequency of germinal centers and T cells were scored by a board-certified anatomic pathologist, using a 0 (low) to 4 (high) scale.
Total ribonucleic acid (RNA) was isolated from 10 spleen cryosections, each […], using the RNEASY® Universal Tissue 8000 Kit (QIAGEN Inc., Valencia, Calif.) on a BIOROBOT® 8000 Workstation (QIAGEN INC., Valencia, Calif.), and deoxyribonucleic acidase (DNASE)-treated according to the manufacturer's protocol. The purity and yield of the RNA were assessed via spectrophotometry from 220 to 750 nm using the NANODROP® ND-1000 (NANODROP Technologies, Wilmington, Del.). The integrity of the RNA was measured with the RNA 6000 NANO LABCHIP® Kit (AGILENT Technologies, Foster City, Calif.) on an AGILENT 2100 Bioanalyzer (AGILENT Technologies, Foster City, Calif.) and calculated using the RNA integrity number (RIN) algorithm (Schroeder et al. (2006) BMC Mol. Biol. 7:3). Deoxyribonucleic acidase-treated RNA was extracted from the samples and stored at −80° C. First strand complementary deoxyribonucleic acid (cDNA) synthesis was performed using a TAQMAN® Gold RT Master Mix (Applied Biosystems, Foster City, Calif.) according to the manufacturer's protocol, except that both oligothymidylic (oligo[dT]) and random hexamers were used for priming. The quality of synthesized cDNA was assessed by generating expression profiles of endogenous reference genes with a real-time polymerase chain reaction (PCR) system, the ABI PRISM® 7900HT Sequence Detection System (Applied Biosystems, Foster City, Calif.). Complementary deoxyribonucleic acid samples were stored at −20° C.
Sequences for all biomarkers (Table 1) were derived from mouse and human deoxyribonucleic acid (DNA) sequence (GENBANK® database [online] maintained by National Center for Biotechnology Information, Bethesda, Md.). Quantitative reverse-transcriptase polymerase chain reaction assays were performed on an ABI PRISM® 7900HT Sequence Detection System (Applied Biosystems, Inc. (Foster City, Calif.) using a SYBR-green detection system (Qiagen Inc., Valencia, Calif.). All quantitative assays were run using universal thermal cycling parameters: hold at 95° C. for 2 minutes to activate the DNA polymerase, then run 40 three-part cycles (95° C. for 20 seconds, 58° C. for 20 seconds, and 76° C. for 20 seconds). Data were analyzed using sequence detection system (SDS) software, Version 1.7 (Applied Biosystems, Inc. (Foster City, Calif.). […] From each amplification plot, a threshold cycle (Ct) value was calculated. […] The Ct values were exported to an EXCEL® (MICROSOFT Corp., Redmond, Wash.) spreadsheet and relative expression (x) was calculated as shown in equation 2.
(§2) Mice were given a single oral dose of ML120B as indicated (n=4/group) for 6 hours. The level of mouse mu heavy chain germline transcript was measured in RNA isolated from serial cryosections by qRT-PCR.
(§3) Mice were given a single oral dose of ML120B as indicated (n=4/group) for 18 hours. The level of mouse mu heavy chain germline transcript was measured in RNA isolated from serial cryosections by qRT-PCR.
Mice were given twice daily oral dose of ML120B by gavage, as indicated (n=4/group) for four days. The level of mouse mu, gamma 3 and gamma 1 heavy chain germline transcript, AICDA transcript, gamma 1 & 2 circle transcript and 18S rRNA were measured in RNA isolated from serial cryosections by qRT-PCR. […]

[2] = system: germinal centers; test: Immunohistochemistry of mouse spleen cryosections (Bcl-6 germinal centers, CD3 T cells), scored by pathologist; assay type: in vivo
Text: as §1, §2, §3
Mice were given twice daily oral dose of ML120B by gavage, as indicated (n=4/group) for four days. The level of mouse mu, gamma 3 and gamma 1 heavy chain germline transcript, AICDA transcript, gamma 1 & 2 circle transcript and 18S rRNA were measured in RNA isolated from serial cryosections by qRT-PCR. […] Germinal centers expressing Bcl-6 decreased 10-fold at 300 mg/kg (FIG. 3). Germline transcripts mu, gamma 3 and gamma 1 decreased from 10-1000-fold at 300 mg/kg (FIG. 3). Transcripts encoding AICDA decreased 100-1000-fold at 300 mg/kg (FIG. 3). Circle transcript gamma 1&2 decreased 10-fold at 100 mg/kg (FIG. 3).

[3] = single oral dose 300 mg/kg, 18 hours
[4] = single oral dose, within first 6 hours
[5] = twice daily oral 300 mg/kg, four days

COc1c(Cl)cc2c([nH]c3cnccc32)c1NC(=O)c1cccnc1C [ML120B, N-(6-chloro-7-methoxy-9H-beta-carbolin-8-yl)-2-methyl-nicotinamide]
reduction in mu germline transcripts [1, 3]: 1000 fold | level of 18S rRNA ([1]; single oral dose, 18 hours): remained unchanged | decrease in level of mu germline transcripts [1, 4]: 50% | decrease in circle transcript gamma 1&2 ([1]; twice daily oral 100 mg/kg, four days): 10 fold | decrease in germline transcripts mu, gamma 3 and gamma 1 [1, 5]: 10-1000 fold | decrease in transcripts encoding AICDA [1, 5]: 100-1000 fold | level of 18S rRNA ([1]; twice daily oral, four days): remained unchanged | reduction in germinal centers [2, 3]: 10 fold | frequency of T cells ([2]; single oral dose, 6 hours): remained unchanged | frequency of T cells ([2]; single oral dose, 18 hours): remained unchanged | decrease in frequency of germinal centers [2, 4]: 50% | decrease in germinal centers expressing Bcl-6 [2, 5]: 10 fold
